What all share (assay type): cell-based
One test relates to monocytes / HUVECs. The test can be described thus: Monocyte migration and binding to CRP-treated HUVECs; VCAM-1 and MCP-1 expression. The conditions noted are these: CRP 25 ug/ml, test compound 10 uM or HGF 50 ng/ml. The procedure:
a. Compound treatment decreases monocyte migration and binding to ECs. […] HUVECs were incubated with CRP (25 ug/ml), CRP together with test compound (10 uM) or HGF (50 ng/ml). The cellular extracts with lysis buffer and analyzed for VCAM-1 and MCP-1 expression via Western blot analysis. For Monocyte binding and migration experiments, monocytes were labeled with a fluorescent dye Vybrant Did (Molecular Probes) and treated to the HUVECs treated as above.

In the next test the test system is oligodendrocytes. The test can be described thus: Oligodendrocyte proliferation. The note with it: Mus musculus, Table 2, read-out: Oligodendrocyte ED50. The procedure: (§1) a. Proliferation. The following assay was performed to assess the activity of the compounds of the invention in cell proliferation. Endothelial cells (HUVECs) were seeded in 96-well plates at a density of 10,000 cells per well in the normal growth medium (EGM-2-Clonetics) containing 2% fetal bovine serum, FGF, VEGF, IGF, ascorbic acid, EGF, GA, heparin and hydrocortisone. The cells were grown normally in the growth medium for 24 hr at 37° C. and 5% CO2. The cells were then rinsed with RPMI-1% BSA and starved for 1-2 hr. The stock solutions of the compounds of the invention were made at a concentration of 10 mg/ml in DMSO and diluted in RPMI-1% BSA at final concentrations of 0.001 uM to 50 uM. The cells were then washed and treated with the compounds and incubated for another 20 hr at 37° C. Then ^3H thymidine (0.5 microgram/ml in RPMI-BSA) was added to the cells and incubated at 37° C. for 4 hr. The unincorporated thymidine was removed by washing the cells four times with 1×PBS. Then the cells were lysed with 0.5M NaOH for 30 min and the radioactivity counted in the beta counter. A similar proliferation assay using monkey bronchial epithelial cells (4MBR-5) and oligodendrocyte cells was also employed.
e. Stimulation of Oligodendrocyte Proliferation. Mouse primary oligodendrocytes (Celprogen, Calif.) were seeded in 96-well plates at 5000 cells/well in serum-free medium for 16 hours. Cells were treated with test compound or HGF/SF (positive control) for 16-24 hours. WST1 cell proliferation reagent (Roche, N.J.) was added to oligodendrocytes, and incubation was continued for another 4-5 hours. Cells with WST1 reagent were read using a plate reader at an OD of 490 nm.

Test [1] deals with Endothelial cells (HUVECs). Put plainly: HUVEC proliferation (3H-thymidine incorporation). The conditions noted are these: Homo sapiens, Table 1, read-out: HUVEC ED50. The procedure:
as §1

In the case of “HGF: Scatter factor / hepatocyte growth factor, a pleiotropic growth factor; used as positive control”, in the test with monocytes / HUVECs (FIG. 17), the “monocyte migration and binding to endothelial cells” value is reported as “decreased”. For the same compound, in the test with monocytes / HUVECs (Western blot), the MCP-1 expression entry is “decreased” and the VCAM-1 expression result was “decreased”.
In the case of `CC1CCN(c2ccc(-c3n[nH]c(=O)c4ccccc34)cc2[N+](=O)[O-])CC1` [drawing 59], the EC50 in the test with oligodendrocytes worked out at 200 nM.
With `CC1CCN(c2ccc(-c3n[nH]c(=O)c4ccccc34)cc2[N+](=O)[O-])CC1` [drawing 52], the EC50 in test [1] stood at 5000 nM.
Still for that read-out and setting: next, `O=c1[nH]nc(-c2ccc(N3CCCCCC3)c([N+](=O)[O-])c2)c2ccccc12` [drawing 50]: 2500 nM.
`O=c1[nH]nc(-c2ccc(N3CCCCC3)c([N+](=O)[O-])c2)c2ccccc12` [drawing 58]: in the test with oligodendrocytes, the EC50 is 200 nM.
As for `CC1CCCN(c2ccc(-c3n[nH]c(=O)c4ccccc34)cc2[N+](=O)[O-])C1` (stereo not shown), the EC50 in test [1] stood at 3000 nM.
Regarding `O=c1[nH]nc(-c2ccc(N3CCCCCC3)c([N+](=O)[O-])c2)c2ccccc12` [drawing 57], the EC50 with oligodendrocytes came to 200 nM.
Regarding `CCCC1CCN(c2ccc(-c3n[nH]c(=O)c4ccccc34)cc2[N+](=O)[O-])CC1`, the EC50 in test [1] amounted to 4000 nM.
Turning to `O=c1[nH]nc(-c2ccc(N3CCCCC3)c([N+](=O)[O-])c2)c2ccccc12` [drawing 51], in test [1], the EC50 is 10000 nM.
Still for that read-out and setting: the figure for `CCC1CCCCN1c1ccc(-c2n[nH]c(=O)c3ccccc23)cc1[N+](=O)[O-]` (stereo not shown) is 3000 nM.
Still for that read-out and setting: the figure for `CC1CCCCN1c1ccc(-c2n[nH]c(=O)c3ccccc23)cc1[N+](=O)[O-]` (stereo not shown) is 2000 nM.
